The values below are quoted from earlier work in publication PMC11360046 (ACS Omega, 2024).

This series has as its system BRD4 BD2. The settings on record: read-out: IC50 BRD4 BD2; I-58.

Each structure is given as a SMILES string.

With `CN1CCC(Nc2cccc(CN3c4ccccc4C=C4c5c(cccc53)C(=O)N4C)c2)CC1` [Compound I-58, 1-methyl-6-(3-((1-methylpiperidin-4-yl)amino)benzyl)-1,6-dihydro-2H-benzo[6,7]azepino[4,3,2-cd]isoindol-2-one], the IC50 was 1.88 nM.

The term IC50 denotes the concentration that inhibits the measured activity by half.
